Data set [1] concerns Hepatocyte Growth Factor (HGF). Kind of data set: HGF mRNA expression in TGF-β1-treated normal human dermal fibroblasts (real-time PCR). It counts as cell-based. The note with it: NHDF + rhTGF-β1 (10 ng/ml), 24 h, TGF-β1 control = 1.00, untreated = 7.23, read-out: HGF Relative Quantitation; for fold induction at 100 µM: compound 100 μM; for fold induction at 250 µM: compound 250 μM.

The test system of data set [2] is LOX, MMP1, MMP2, MMP9, MMP13, TIMP3 and PLAT (tPA). Kind of data set: Expression of regeneration markers in TGF-β1-injured HK-2 epithelial cells (FIG. 3). The note with it: HK-2 cells, rhTGF-β1 (10 ng/ml), compound 500 μM, 24 h. It counts as cell-based, human.
The test system of data set [3] is LOX, MMP13, PLAU (uPA), serpin E1, TIMP3 and ILK. Kind of data set: Expression of regeneration markers in TGF-β1-injured NHDF (FIG. 2). It counts as cell-based, human. The following applies: rhTGF-β1 (10 ng/ml), compound 500 μM, 24 h. As for the experimental part:
Experiments were undertaken to determine the effect of compounds on hepatocyte growth factor expression in vitro normal human dermal fibroblasts (NHDF) from adult donor (Clonetics #CC-2511). NHDF were starved overnight in DMEM/F12+0.5% FBS and treated with or without rhTGF-β1 (10 ng/ml) and compound I (500 μM) for 24 h. RNA was isolated with miRNeasy® kit (QIAGEN®), including on-column DNase digestion step. cDNA synthesis was done (0.5 μg RNA/reaction) using the RT^2 First Strand kit (QIAGEN® #330401). Real-Time PCR was performed as described in the RT^2 Profiler PCR Array handbook on a AB-7900HT real-time cycler. Real-Time PCR data was analyzed using the ΔΔCt method on the RT^2 Profiler PCR Array Data Analysis Web Portal. All Ct values >35 or non amplified were changed to the cut-off value of 35. The housekeeping genes used for normalization are GAPDH and RPLP0. The control group is TGF-β1 treated cells. An experiment was undertaken to determine the effect of compounds on the expression of regeneration markers. This experiment was performed with NHDF (Normal Human Dermal Fibroblasts) and human epithelial cells (renal tubular epithelial cells, HK-2) involved in tissue regeneration after single, multiple or constant injury. Injury was simulated by incubation of the cells with TGF-β1. […]

Data set [4] has as its system Hepatocyte Growth Factor (HGF). Kind of data set: HGF mRNA expression in TGF-β1-treated normal human dermal fibroblasts (real-time PCR). The note with it: compound 500 μM, 24 h; for fold induction at 500 µM: Homo sapiens, NHDF + rhTGF-β1 (10 ng/ml), TGF-β1 control = 1.00, untreated = 7.23, read-out: HGF Relative Quantitation. In kind it is cell-based. As for the experimental part:
(§1) Experiments were undertaken to determine the effect of compounds on hepatocyte growth factor expression in vitro normal human dermal fibroblasts (NHDF) from adult donor (Clonetics #CC-2511). NHDF were starved overnight in DMEM/F12+0.5% FBS and treated with or without rhTGF-β1 (10 ng/ml) and compound I (500 μM) for 24 h. RNA was isolated with miRNeasy® kit (QIAGEN®), including on-column DNase digestion step. cDNA synthesis was done (0.5 μg RNA/reaction) using the RT^2 First Strand kit (QIAGEN® #330401). Real-Time PCR was performed as described in the RT^2 Profiler PCR Array handbook on a AB-7900HT real-time cycler. Real-Time PCR data was analyzed using the ΔΔCt method on the RT^2 Profiler PCR Array Data Analysis Web Portal. All Ct values >35 or non amplified were changed to the cut-off value of 35. The housekeeping genes used for normalization are GAPDH and RPLP0. The control group is TGF-β1 treated cells.
(In qPCR the cycle at which signal appears reflects the starting amount.)

In the next data set the test system is Serpin A1 (AAT). The experiment in a line: AAT mRNA expression, qPCR-panel on NHDF (FIG. 4). It counts as cell-based, human. The following applies: injured NHDF cells. The procedure: as §1, with “cells. As mentioned above, AAT can induce nerve regeneration. […] Compound I is representative of the compounds of formula I disclosed herein. Therefore, the compounds of formula I disclosed herein may increase regeneration of nerves via the production of endogenous AAT at the site of injury.” for “cells.”

A further data set relates to injured kidney. The experiment in a line: Organ function (GFR) of an injured kidney (FIG. 5). In kind it is in vivo.

Counter-ions that a name gives are not always drawn.

On to `CCCCCCc1cccc(CC(=O)O)c1` [Compound VI, Sodium Salt of 2-(3-Hexylphenyl)acetic acid], for which the fold induction at 100 µM in data set [1] was 2.77.

In the case of `CCCCCc1cccc(CC(=O)[O-])c1.[Na+]` [Compound I, Sodium Salt of (3-pentylphenyl)acetic acid], in data set [2], the “expression level of regeneration markers LOX, MMP1, MMP2, MMP9, MMP13, TIMP3 and PLAT (tPA)” value is listed as “all expressed at a level close to the normal level observed in healthy cells”. Further, the “expression level of regeneration markers LOX, MMP13, PLAU (uPA), serpin E1, TIMP3 and ILK” value in data set [3] is reported as “all expressed at a normal level”. Also, the fold induction at 500 µM in data set [4] worked out at 4.23. For the same compound, the “expression of HGF (FIG. 1), result in words” value in data set [4] (NHDF, rhTGF-β1 (10 ng/ml)) was “increases the expression of HGF”. The “AAT mRNA expression” value with Serpin A1 (AAT) was “increase AAT mRNA expression”. In addition, the “organ function (GFR)” value in the data set on injured kidney is listed as “increase in organ function (GFR)”.

Consider `CCCCCc1cc(CC(=O)O)cc(CCCCC)c1O` [Compound XVIII, Sodium Salt of 2-(4-Hydroxy-3,5-dipentylphenyl)acetic acid], for which the fold induction at 25 µM in data set [1] (compound 25 μM) is 1.4.

Consider `CCCCCc1cccc(CCC(=O)O)c1` [Compound II, Sodium Salt of 3-(3-pentylphenyl)propionic acid], for which, in data set [1], the fold induction at 250 µM came to 1.37.

As for `CCC/C=C/c1cccc(CC(=O)O)c1` [Compound IV, Sodium Salt of E-(3-pent-1-enyl-phenyl)acetic acid], the fold induction at 500 µM in data set [4] was determined as 3.8.

With `CCCCCc1cc(O)cc(CC(=O)O)c1` [Compound VII, Sodium Salt of 3-hydroxy-5-pentylphenylacetic acid], the fold induction at 500 µM in data set [4] stood at 2.66.

Regarding `CCCC/C=C/c1cccc(CC(=O)O)c1` [Compound V, Sodium Salt of 2-(3-(Hex-1-enyl]phenyl)acetic acid], in data set [1], the fold induction at 100 µM came out at 2.73.

For the compound `CCCCCc1cc(F)cc(CC(=O)O)c1` [Compound X, Sodium Salt of 2-(3-fluoro-5-pentylphenyl)acetic acid], the fold induction at 250 µM in data set [1] amounted to 3.06.

As for `CCCCCc1cccc(CC(=O)O)c1F` [Compound XI, Sodium Salt of 2-(2-Fluoro-3-pentylphenyl)acetic acid], the fold induction at 250 µM in data set [1] stood at 3.38.

On to `CCCCCc1cc(CC(=O)O)ccc1O` [Compound VIII, Sodium Salt of 2-(4-Hydroxy-3-pentylphenyl)acetic acid], for which the fold induction at 500 µM in data set [4] was found to be 1.44.

`CCCCCc1cccc(C(F)C(=O)O)c1` (racemic) [Compound XIII, Sodium Salt of (RS)-2-Fluoro-2-(3-pentylphenyl)acetic acid]: the fold induction at 500 µM in data set [4] turned out to be 1.71.

In the case of `CCCCCc1cc(CC(=O)O)ccc1F` [Compound XII, Sodium Salt of 2-(4-Fluoro-3-pentylphenyl)acetic acid], the fold induction at 500 µM in data set [4] was found to be 2.47.

Consider `CCCCCc1cc(CCCCC)c(F)c(CC(=O)O)c1` [Compound XXXII, Sodium Salt of 2-(2-Fluoro-3,5-dipentylphenyl)acetic Acid], for which, in data set [1] (compound 10 μM), the fold induction at 10 µM was determined as 1.73.

As for `CCCCCc1cc(CCCCC)cc(CC(=O)[O-])c1.[Na+]` [Compound XIV, Sodium 2-[3,5-Dipentylphenyl]acetate], the melting point (in general, the temperature, or range, at which the solid turns liquid) lay in the range of 225 to 230 °C.

With `CCCCc1cccc(CCC(=O)O)c1` [Compound III, Sodium Salt of 3-(3-butylphenyl)propionic acid], the fold induction at 500 µM in data set [4] was found to be 2.41.

On to `CCCCCc1cc(CCCCC)cc(C(C)(C)C(=O)O)c1` [Compound XXXIII, Sodium Salt of 2-(3,5-Dipentylphenyl)-2-methylpropanoic Acid], for which the fold induction at 6 µM in data set [1] (compound 6 μM) worked out at 1.54.
